In the supplement of paper PMC10307832:

Experiments:
Assay in all cases: relative viability (nuclei count vs DMSO), 5 days (fraction); higher = more cells survive
Cediranib + Crizotinib = compound: COc1cc2c(Oc3ccc4[nH]c(C)cc4c3F)ncnc2cc1OCCCN1CCCC1 [Cediranib] + C[C@@H](Oc1cc(-c2cnn(C3CCNCC3)c2)cnc1N)c1c(Cl)ccc(F)c1Cl [Crizotinib] (partner 1 µM)
Outline: (§1)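 Each reported value is a median over duplicate plates. It expresses relative viability: treated-well nuclei count divided by vehicle-well nuclei count. Lung cancer cell lines in 1536-well plates were dosed by pin tool a day after seeding, alone with one drug or with a fixed anchor-drug dose plus five library-drug doses (not always all listed) in √10 steps, and nuclei were counted after 5 days.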

Decitabine + Pictilisib = compound: Nc1ncn([C@H]2C[C@H](O)[C@@H](CO)O2)c(=O)n1 [Decitabine] + CS(=O)(=O)N1CCN(Cc2cc3nc(-c4cccc5[nH]ncc45)nc(N4CCOCC4)c3s2)CC1 [Pictilisib] (partner 1 µM)
Outline: as §1

Cediranib + Bortezomib = compound: COc1cc2c(Oc3ccc4[nH]c(C)cc4c3F)ncnc2cc1OCCCN1CCCC1 [Cediranib] + CC(C)C[C@H](NC(=O)[C@H](Cc1ccccc1)NC(=O)c1cnccn1)B(O)O [Bortezomib] (partner 0.002 µM)
Outline: as §1

Cediranib + Trametinib = compound: COc1cc2c(Oc3ccc4[nH]c(C)cc4c3F)ncnc2cc1OCCCN1CCCC1 [Cediranib] + CC(=O)Nc1cccc(-n2c(=O)n(C3CC3)c(=O)c3c(Nc4ccc(I)cc4F)n(C)c(=O)c(C)c32)c1 [Trametinib] (partner 0.02 µM)
Outline: as §1

Cell Line	relative viability (Cediranib + Crizotinib; first compound 0.04 µM)	relative viability (Cediranib + Crizotinib; first compound 0.4 µM)	relative viability (Cediranib + Crizotinib; first compound 1.265 µM)	relative viability (Cediranib + Crizotinib; first compound 4 µM)	relative viability (Decitabine + Pictilisib; first compound 0.04 µM)	relative viability (Decitabine + Pictilisib; first compound 0.1265 µM)	relative viability (Decitabine + Pictilisib; first compound 0.4 µM)	relative viability (Decitabine + Pictilisib; first compound 1.265 µM)	relative viability (Decitabine + Pictilisib; first compound 4 µM)	relative viability (Cediranib + Bortezomib; first compound 0.04 µM)	relative viability (Cediranib + Bortezomib; first compound 0.4 µM)	relative viability (Cediranib + Bortezomib; first compound 1.265 µM)	relative viability (Cediranib + Bortezomib; first compound 4 µM)	relative viability (Cediranib + Trametinib; first compound 0.04 µM)	relative viability (Cediranib + Trametinib; first compound 0.1265 µM)	relative viability (Cediranib + Trametinib; first compound 0.4 µM)	relative viability (Cediranib + Trametinib; first compound 1.265 µM)	relative viability (Cediranib + Trametinib; first compound 4 µM)	relative viability (Cediranib + Crizotinib; first compound 0.1265 µM)	relative viability (Cediranib + Bortezomib; first compound 0.1265 µM)
NCI-H520	0.93	0.665	0.801	0.598	0.315	0.271	0.241	0.222	0.198	0.734	0.687	0.462	0.622	0.783	0.435	0.54	0.483	0.521	–	–
ChaGo-K-1	1.08	1.08	1.14	0.874	0.552	0.705	0.446	0.509	0.492	1.03	0.994	1.04	0.861	0.875	0.821	0.878	0.868	0.909	–	–
NCI-H2085	0.888	0.876	0.813	0.868	0.454	0.462	0.408	0.403	0.404	1.1	0.956	0.97	0.954	0.571	0.523	0.475	0.49	0.526	0.927	1.05
NCI-H1651	0.887	0.876	0.89	0.976	0.481	0.598	0.624	0.503	0.434	0.972	0.915	0.914	0.894	0.826	0.874	0.846	0.855	0.821	0.904	0.87
RERF-LC-KJ	0.875	0.799	0.782	0.752	0.508	0.607	0.403	0.368	0.354	1.09	1.04	1.11	1.17	0.875	0.902	0.839	0.762	0.985	0.893	–
NCI-H1755	0.888	0.838	0.855	0.848	0.385	0.411	0.291	0.365	0.343	0.971	0.878	0.991	0.958	0.8	0.804	0.709	0.81	0.783	0.845	0.925
NCI-H2126	1.04	0.986	0.994	1.01	0.517	0.543	0.463	0.39	0.438	1.14	1.09	0.963	1.11	0.575	0.551	0.551	0.578	0.531	1.07	1.2
EPLC-272H	0.735	0.945	1.04	0.906	0.277	0.303	–	0.271	0.321	0.997	0.923	0.794	0.949	0.318	–	0.278	0.269	0.242	–	–
NCI-H1975	1.16	0.92	1.02	0.913	0.293	0.254	0.226	0.238	0.218	0.423	0.326	0.432	0.345	0.377	0.388	0.338	0.373	0.337	1.05	0.479
NCI-H3122	0.259	0.277	0.256	0.275	0.64	0.564	0.399	0.571	0.517	0.996	1.01	1.06	1	0.226	–	0.218	0.242	0.282	0.297	0.967
COR-L 105	–	0.832	0.716	0.695	0.327	0.442	0.405	0.341	0.292	–	0.715	0.722	0.828	0.438	0.478	0.415	0.384	0.43	0.842	0.666
BEN	1.19	0.971	0.824	0.816	0.545	0.543	0.396	0.349	0.324	0.872	0.861	0.559	0.724	1.12	0.936	1.02	1.02	0.986	0.662	0.432
NCI-H1915	1.01	0.883	0.873	0.832	0.814	0.662	0.387	0.295	0.304	0.989	0.958	0.949	0.984	0.318	0.308	0.3	0.307	0.272	0.851	0.914
NCI-H650	0.7	0.612	0.835	0.639	0.81	0.779	0.574	0.443	0.33	0.873	0.879	0.764	0.718	0.96	0.85	1.06	1.09	1.03	0.757	0.625
NCI-H1650	1.29	0.794	0.953	0.879	0.445	0.595	0.272	0.47	0.399	0.201	0.205	0.223	0.194	0.574	0.606	0.541	0.54	0.393	1.05	0.169
NCI-H2009	1.12	0.989	1.06	1.04	0.773	0.672	0.351	0.386	0.245	0.934	1.04	0.943	1.12	0.288	0.335	0.237	0.213	0.276	1.03	0.246
COR-L23	0.696	0.654	0.703	0.68	0.527	0.619	0.239	0.178	0.172	0.944	0.867	0.969	1.18	0.608	0.578	0.573	0.425	0.532	0.749	1.05
